Entries after “also recorded” stand apart in the source; their conditions may differ.
Assays:
[1] = system: stromelysin (MMP-3); assay: IL-1 induced stromelysin (MMP-3) mRNA expression in chondrocytes; assay type: cell-based
Method: (§1) Cells were treated with paclitaxel at various concentrations (10^−7 to 10^−5 M) for 24 hours, then treated with IL-1β (20 ng/ml) for additional 18 hours in the presence of paclitaxel. Total RNA was isolated, and the MMP-1 mRNA levels were determined by Northern blot analysis. The blots were subsequently stripped and re-probed with ^32P-radiolabeled rat GAPDH cDNA, which was used as a housekeeping gene. The results shown are representative of four independent experiments (FIG. 10D). Quantitation of collagenase-1 and stromelysin-expression mRNA levels were conducted. The MMP-1 and MMP-3 expression levels were normalized with GAPDH.

[2] = system: CAM vasculature (angiogenesis); assay: Chick chorioallantoic membrane (CAM) assay; conditions: for Inhibition/n: 48 hours
[3] = system: AP-1; assay: IL-1 induced AP-1 DNA binding activity (gel mobility shift); assay type: cell-based; conditions: chondrocyte lysates, pretreated 10^−7 to 10^−5 M for 24 hours
Method: Binding activity was assayed with a radiolabeled human AP-1 sequence probe and gel mobility shift assay. Extracts from chondrocytes untreated or treated with various amounts of paclitaxet (10^−7 to 10^−5 M) followed by IL-1β (20 ng/ml) were incubated with excess probe on ice for 30 minutes, followed by non-denaturing gel electrophoresis (FIG. 10B). The “com” lane contains excess unlabeled AP-1 oligonucleotide. The results shown are representative of three independent experiments.

[4] = system: murine RAW 264.7 macrophage cell line; assay: Proliferation of murine RAW 264.7 macrophage cell line; assay type: cell-based; conditions: Mus musculus, RAW264.7
[5] = system: human fibroblasts; assay: Cell proliferation of fibroblasts; assay type: cell-based; conditions: Fibroblast, 72 hours, CYQUANT, read-out: IC50 cell proliferation of fibroblasts
Procedure, shortened: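 Human fibroblasts plated at 600 cells/well, attached overnight, then exposed to drug in triplicate for 72 h at 37°C. Cell content read with CYQUANT GR dye in lysis buffer after 3-5 min at room temperature.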

[6] = system: Primary human smooth muscle cells; assay: Smooth muscle cell migration; assay type: cell-based; conditions: chemotaxis to rhPDGF-BB 10 ng/ml, 4 hours
Method: Primary human smooth muscle cells were starved of serum in smooth muscle cell basal media containing insulin and human basic fibroblast growth factor (bFGF) for 16 hours prior to the assay. For the migration assay, cells were trypsinized to remove cells from flasks, washed with migration media and diluted to a concentration of 2-2.5×10^5 cells/ml in migration media. Migration media consists of phenol red free Dulbecco's Modified Eagle Medium (DMEM) containing 0.35% human serum albumin. A 100 μL volume of smooth muscle cells (approximately 20,000-25,000 cells) was added to the top of a Boyden chamber assembly (Chemicon QCM CHEMOTAXIS 96-well migration plate). To the bottom wells, the chemotactic agent, recombinant human platelet derived growth factor (rhPDGF-BB) was added at a concentration of 10 ng/ml in a total volume of 150 μL. Paclitaxel was prepared in DMSO at a concentration of 10^−2 M and serially diluted 10-fold to give a range of stock concentrations (10^−8 M to 10^−2 M). […]
At the end of the 4-hour period, cells in the top chamber were discarded and the smooth muscle cells attached to the underside of the filter were detached for 30 minutes at 37° C. in Cell Detachment Solution (Chemicon). […] Fluorescence was read in a fluorescence microplate reader at ˜480 nm excitation wavelength and ˜520 nm emission maxima. […]

[7] = system: AP-1; assay: IL-1 stimulated AP-1 transcriptional activity (CAT reporter) in chondrocytes; assay type: cell-based; conditions: 10^−7 to 10^−5 M
[8] = system: Smooth muscle cells; assay: Proliferation of smooth muscle cells; assay type: cell-based; conditions: 72 hours, CYQUANT; read-out: IC50 proliferation of smooth muscle cells
Procedure, shortened: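 Smooth muscle cells at 600 cells/well, exposed to paclitaxel (DMSO stocks 10^−8 to 10^−2 M) in triplicate for 72 h at 37 °C. Proliferation read with CyQUANT GR dye in lysis buffer.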

[9] = system: collagenase (MMP-1); assay: IL-1 induced collagenase (MMP-1) mRNA expression in chondrocytes; assay type: cell-based, calf
Method: as §1
Primary chondrocyte cultures were freshly isolated from calf cartilage. The cells were plated at 2.5×10^6 per ml in 100×20 mm culture dishes and incubated in Ham's F12 medium containing 5% FBS overnight at 37° C. The cells were starved in serum-free medium overnight and then treated with anti-microtubule agents at various concentrations for 6 hours. IL-1 (20 ng/ml) was then added to each plate and the plates incubated for an additional 18 hours. Total RNA was isolated by the acidified guanidine isothiocyanate method and subjected to electrophoresis on a denatured gel Denatured RNA samples (15 μg) were analyzed by gel electrophoresis in a 1% denatured gel, transferred to a nylon membrane and hydridized with the ^32P-labeled collagenase cDNA probe. ^32P-labeled glyceraldehyde phosphate […] (GAPDH) cDNA was used as an internal standard to ensure roughly equal loading. The exposed films were scanned and quantitatively analyzed with IMAGEQUANT.

With CC(=O)O[C@H]1C(=O)[C@@]2(C)[C@H]([C@H](OC(=O)c3ccccc3)[C@]3(O)C[C@H](OC(=O)[C@H](O)[C@@H](NC(=O)c4ccccc4)c4ccccc4)C(C)=C1C3(C)C)[C@]1(OC(C)=O)CO[C@@H]1C[C@@H]2O [paclitaxel, 5β,20-epoxy-1,2 alpha,4,7β,10β,13 alpha-hexahydroxytax-11-en-9-one-4,10-diacetate-2-benzoate-13-(alpha-phenylhippurate)] the “IL-1 induced stromelysin mRNA levels” value ([1]; at 10^−5 M) was “complete inhibition”, the “concentration that inhibits stromelysin expression” value ([1]; chondrocytes in vitro) was 10^−6 M and the “IL-1 induced stromelysin mRNA levels” value ([1]; chondrocytes, pretreatment for 24 hours) was “significantly reduced; also recorded: inhibited”. For the same molecule, the Inhibition/n ([2]; 0.25 μg in methylcellulose (10 μl)) was 2/11, the Inhibition/n ([2]; 0.5 μg in methylcellulose (10 μl)) was 6/11 and the Inhibition/n ([2]; 1 μg in methylcellulose (10 μl)) was 6/15. The Inhibition/n ([2]; 5 μg in methylcellulose (10 μl)) was 20/27, the Inhibition/n ([2]; 10 μg in methylcellulose (10 μl)) was 16/21 and the Inhibition/n ([2]; 30 μg in methylcellulose (10 μl)) was 31/31. The angiogenesis ([2]; 48 hours after application to the CAM) was “inhibited”, the avascular gradient scale ([2]; maximal avascular zone within 48 hours, depending on concentration) was 3 and the “IL-1 induced AP-1 binding activity” value [3] was “decreased”. For the same molecule, the IC50 [4] was 134 nM, the IC50 [5] was 10 to 100 nM and the IC50 [6] was 0.76 nM. For the same molecule, the “IL-1 induced AP-1 reporter gene CAT activity” value [7] was “decreased CAT activity in a concentration dependent manner; also recorded: reduced”, the IC50 [8] was 7 nM and the “IL-1 induced collagenase mRNA levels” value ([9]; at 10^−5 M) was “complete inhibition”. The “concentration that inhibits IL-1-induced collagenase expression” value ([9]; chondrocytes in vitro) was 10^−6 M and the “IL-1 induced collagenase mRNA levels” value ([9]; chondrocytes, pretreatment before IL-1) was “significantly reduced; also recorded: inhibited”.
